pEC50: −log10 of the molar value.
Target: human APJ receptor (Homo sapiens (Human), UniProt P35414)
Test: [35S]GTPγS binding assay on membranes from CHO cells stably expressing human APJ receptor
Assay type: biochemical
Settings: membranes of CHO cells stably expressing human APJ receptor, read-out: Activity hAPJ SPA EC50 IP
Outline: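 Agonist EC50 values come from non-linear regression of mean data from several independent runs. Membranes of CHO cells stably expressing human APJ were incubated 90 min at room temperature with [35S]GTPγS in buffer with optimized GDP, MgCl2 and NaCl, then read on a microplate imager.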

Chain of human APJ receptor (P35414 whole entry): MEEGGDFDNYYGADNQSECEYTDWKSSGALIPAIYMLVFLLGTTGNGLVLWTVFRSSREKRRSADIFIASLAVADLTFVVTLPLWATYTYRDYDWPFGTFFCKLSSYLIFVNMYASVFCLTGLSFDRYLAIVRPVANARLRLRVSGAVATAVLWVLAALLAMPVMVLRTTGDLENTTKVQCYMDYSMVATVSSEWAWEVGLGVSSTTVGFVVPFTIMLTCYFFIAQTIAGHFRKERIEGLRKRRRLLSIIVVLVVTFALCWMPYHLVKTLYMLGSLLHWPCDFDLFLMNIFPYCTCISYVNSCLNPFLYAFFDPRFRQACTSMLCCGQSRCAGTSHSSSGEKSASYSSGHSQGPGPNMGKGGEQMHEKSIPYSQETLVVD

Row | SMILES | pEC50
1 | COc1cccc(-c2nnc(NS(=O)(=O)[C@@H](C)[C@@H](OC(C)C)c3ncc(C)cn3)n2[C@@H](C)[C@H]2CCCO2)n1 (single isomer, unassigned) [Example 273.0] | 7.64
2 | COc1cccc(-c2nnc(NS(=O)(=O)[C@@H](C)[C@@H](OC(C)C)c3ncc(C)cn3)n2[C@@H](C)[C@H]2CCCO2)n1 (single isomer, unassigned) [Example 274.0] | 8.66
3 | COc1cccc(-c2nnc(NS(=O)(=O)[C@@H](C)[C@@H](OC(C)C)c3ncc(C)cn3)n2[C@@H](C)[C@H]2CCCO2)n1 (single isomer, unassigned) [Example 275.0] | 7.74
4 | COc1cccc(-c2nnc(NS(=O)(=O)[C@@H](C)[C@@H](OC(C)C)c3ncc(C)cn3)n2[C@@H](C)[C@H]2CCCO2)n1 (single isomer, unassigned) [Example 276.0] | 8.89
5 | COc1cccc(-c2nnc(NS(=O)(=O)[C@@H](C)[C@H](OC)c3ncc(Cl)cn3)n2C[C@H]2CCCO2)n1 (single isomer, unassigned) [Example 279.0, (1R,2S)-1-(5-chloropyrimidin-2-yl)-1-methoxy-N-(5-(6-methoxypyridin-2-yl)-4-(((R)-tetrahydrofuran-2-yl)methyl)-4H-1,2,4-triazol-3-yl)propane-2-sulfonamide or (1R,2S)-1-(5-chloropyrimidin-2-yl)-1-methoxy-N-(5-(6-methoxypyridin-2-yl)-4-(((S)-tetrahydrofuran-2-yl)methyl)-4H-1,2,4-triazol-3-yl)propane-2-sulfonamide] | 7.12
6 | COc1cccc(-c2nnc(NS(=O)(=O)[C@@H](C)[C@H](OC)c3ncc(Cl)cn3)n2C[C@H]2CCCO2)n1 (single isomer, unassigned) [Example 280.0, (1R,2S)-1-(5-chloropyrimidin-2-yl)-1-methoxy-N-(5-(6-methoxypyridin-2-yl)-4-(((R)-tetrahydrofuran-2-yl)methyl)-4H-1,2,4-triazol-3-yl)propane-2-sulfonamide or (1R,2S)-1-(5-chloropyrimidin-2-yl)-1-methoxy-N-(5-(6-methoxypyridin-2-yl)-4-(((S)-tetrahydrofuran-2-yl)methyl)-4H-1,2,4-triazol-3-yl)propane-2-sulfonamide] | 7.68
7 | COc1cccc(-c2nnc(NS(=O)(=O)[C@@H](C)[C@H](OC)c3ncc(Cl)cn3)n2CC2CCOC2)n1 (single isomer, unassigned) [Example 285.0, (1R,2S)-1-(5-chloropyrimidin-2-yl)-1-methoxy-N-(5-(6-methoxypyridin-2-yl)-4-(((R)-tetrahydrofuran-3-yl)methyl)-4H-1,2,4-triazol-3-yl)propane-2-sulfonamide or (1R,2S)-1-(5-chloropyrimidin-2-yl)-1-methoxy-N-(5-(6-methoxypyridin-2-yl)-4-(((S)-tetrahydrofuran-3-yl)methyl)-4H-1,2,4-triazol-3-yl)propane-2-sulfonamide] | 7.19
8 | COc1cccc(-c2nnc(NS(=O)(=O)[C@@H](C)[C@H](OC)c3ncc(Cl)cn3)n2CC2CCOC2)n1 (single isomer, unassigned) [Example 286.0, (1R,2S)-1-(5-chloropyrimidin-2-yl)-1-methoxy-N-(5-(6-methoxypyridin-2-yl)-4-(((R)-tetrahydrofuran-3-yl)methyl)-4H-1,2,4-triazol-3-yl)propane-2-sulfonamide or (1R,2S)-1-(5-chloropyrimidin-2-yl)-1-methoxy-N-(5-(6-methoxypyridin-2-yl)-4-(((S)-tetrahydrofuran-3-yl)methyl)-4H-1,2,4-triazol-3-yl)propane-2-sulfonamide] | 7.26
9 | COc1cccc(-c2nnc(NS(=O)(=O)[C@@H](C)[C@H](OC)c3ncc(Cl)cn3)n2C[C@H]2CCC(C)(C)O2)n1 (single isomer, unassigned) [Example 289.0, (1R,2S)-1-(5-chloropyrimidin-2-yl)-N-(4-(((R)-5,5-dimethyltetrahydrofuran-2-yl)methyl)-5-(6-methoxyl)yridin-2-yl)-4H-1,2,4-triazol-3-yl)-1-methoxypropane-2-sulfonamide or (1R,2S)-1-(5-chloropyrimidin-2-yl)-N-(4-(((S)-5,5-dimethyltetrahydrofuran-2-yl)methyl)-5-(6-methoxypyridin-2-yl)-4H-1,2,4-triazol-3-yl)-1-methoxypropane-2-sulfonamide] | 7.09
10 | COc1cccc(-c2nnc(NS(=O)(=O)[C@@H](C)[C@H](OC)c3ncc(Cl)cn3)n2C[C@H]2CCC(C)(C)O2)n1 (single isomer, unassigned) [Example 290.0, (1R,2S)-1-(5-chloropyrimidin-2-yl)-N-(4-(((R)-5,5-dimethyltetrahydrofuran-2-yl)methyl)-5-(6-methoxypyridin-2-yl)-4H-1,2,4-triazol-3-yl)-1-methoxypropane-2-sulfonamide or (1R,2S)-1-(5-chloropyrimidin-2-yl)-N-(4-(((S)-5,5-dimethyltetrahydrofuran-2-yl)methyl)-5-(6-methoxypyridin-2-yl)-4H-1,2,4-triazol-3-yl)-1-methoxypropane-2-sulfonamide] | 7.82
11 | COc1cccc(-c2nnc(NS(=O)(=O)[C@@H](C)[C@H](C)c3ncc(Cl)cn3)n2[C@H](C)c2csnn2)n1 (single isomer, unassigned) [Example 295.0, (2S,3R)-N-(4-((R)-1-(1,2,3-thiadiazol-4-yl)ethyl)-5-(6-methoxypyridin-2-yl)-4H-1,2,4-triazol-3-yl)-3-(5-chloropyrimidin-2-yl)butane-2-sulfonamide or (2S,3R)-N-(4-((S)-1-(1,2,3-thiadiazol-4-yl)ethyl)-5-(6-methoxypyridin-2-yl)-4H-1,2,4-triazol-3-yl)-3-(5-chloropyrimidin-2-yl)butane-2-sulfonamide] | 8.19
12 | COc1cccc(-c2nnc(NS(=O)(=O)[C@@H](C)[C@H](C)c3ncc(Cl)cn3)n2[C@H](C)c2csnn2)n1 (single isomer, unassigned) [Example 296.0, (2S,3R)-N-(4-((R)-1-(1,2,3-thiadiazol-4-yl)ethyl)-5-(6-methoxypyridin-2-yl)-4H-1,2,4-triazol-3-yl)-3-(5-chloropyrimidin-2-yl)butane-2-sulfonamide or (2S,3R)-N-(4-((S)-1-(1,2,3-thiadiazol-4-yl)ethyl)-5-(6-methoxypyridin-2-yl)-4H-1,2,4-triazol-3-yl)-3-(5-chloropyrimidin-2-yl)butane-2-sulfonamide] | 8.74
13 | COc1cccc(-c2nnc(NS(=O)(=O)[C@@H](C)[C@@H](OC(C)C)c3ncc(C)cn3)n2C[C@H]2CCCCO2)n1 (single isomer, unassigned) [Example 300.0, (1S,2S)-1-isopropoxy-N-(5-(6-methoxypyridin-2-yl)-4-(((R)-tetrahydro-2H-pyran-2-yl)methyl)-4H-1,2,4-triazol-3-yl)-1-(5-methylpyrimidin-2-yl)propane-2-sulfonamide or (1S,2S)-1-isopropoxy-N-(5-(6-methoxypyridin-2-yl)-4-(((S)-tetrahydro-2H-pyran-2-yl)methyl)-4H-1,2,4-triazol-3-yl)-1-(5-methylpyrimidin-2-yl)propane-2-sulfonamide] | 7.85
14 | COc1cccc(-c2nnc(NS(=O)(=O)[C@@H](C)[C@@H](OC(C)C)c3ncc(C)cn3)n2C[C@H]2CCCCO2)n1 (single isomer, unassigned) [Example 301.0, (1S,2S)-1-isopropoxy-N-(5-(6-methoxypyridin-2-yl)-4-(((R)-tetrahydro-2H-pyran-2-yl)methyl)-4H-1,2,4-triazol-3-yl)-1-(5-methylpyrimidin-2-yl)propane-2-sulfonamide or (1S,2S)-1-isopropoxy-N-(5-(6-methoxypyridin-2-yl)-4-(((S)-tetrahydro-2H-pyran-2-yl)methyl)-4H-1,2,4-triazol-3-yl)-1-(5-methylpyrimidin-2-yl)propane-2-sulfonamide] | 8.36
15 | COc1cccc(-c2nnc(NS(=O)(=O)[C@@H](C)[C@H](OC)c3ncc(Cl)cn3)n2C[C@@H]2CCC[C@H](C)O2)n1 (single isomer, unassigned) [Example 305.0] | 8.40
16 | COc1cccc(-c2nnc(NS(=O)(=O)[C@@H](C)[C@H](OC)c3ncc(Cl)cn3)n2C[C@@H]2CCC[C@H](C)O2)n1 (single isomer, unassigned) [Example 306.0] | 7.46
17 | COc1cccc(-c2nnc(NS(=O)(=O)[C@@H](C)[C@H](OC)c3ncc(Cl)cn3)n2C[C@@H]2CCC[C@H](C)O2)n1 (single isomer, unassigned) [Example 307.0] | 8.06
18 | COc1cccc(-c2nnc(NS(=O)(=O)[C@@H](C)[C@H](OC)c3ncc(Cl)cn3)n2C[C@@H]2CCC[C@H](C)O2)n1 (single isomer, unassigned) [Example 308.0] | 8.72
19 | COc1cccc(-c2nnc(NS(=O)(=O)[C@@H](C)[C@H](OC)c3ncc(Cl)cn3)n2[C@H](C)[C@@H]2CCCCO2)n1 (single isomer, unassigned) [Example 317.0] | 9.15
20 | COc1cccc(-c2nnc(NS(=O)(=O)[C@@H](C)[C@H](OC)c3ncc(Cl)cn3)n2[C@H](C)[C@@H]2CCCCO2)n1 (single isomer, unassigned) [Example 318.0] | 8.62
21 | COc1cccc(-c2nnc(NS(=O)(=O)[C@@H](C)[C@@H](OC(C)C)c3ncc(C)cn3)n2[C@H](C)[C@@H]2CCCCO2)n1 (single isomer, unassigned) [Example 321.0] | 7.92
22 | COc1cccc(-c2nnc(NS(=O)(=O)[C@@H](C)[C@@H](OC(C)C)c3ncc(C)cn3)n2[C@H](C)[C@@H]2CCCCO2)n1 (single isomer, unassigned) [Example 322.0] | 8.92
23 | COc1cccc(-c2nnc(NS(=O)(=O)[C@@H](C)[C@@H](OC(C)C)c3ncc(C)cn3)n2[C@H](C)[C@@H]2CCCCO2)n1 (single isomer, unassigned) [Example 323.0] | 9.18
24 | COc1cccc(-c2nnc(NS(=O)(=O)[C@@H](C)[C@@H](OC(C)C)c3ncc(C)cn3)n2[C@H](C)[C@@H]2CCCCO2)n1 (single isomer, unassigned) [Example 324.0] | 9.46

— US10689367B2, “Triazole pyridyl compounds as agonists of the APJ receptor” (AMGEN INC., priority 2016, dated 2020)
